Values quoted from earlier work, collected in paper PMC11910062 (Drug Design, Development and Therapy, 2025).

Experiments:
[1] = ref submission materials for new drug application
[2] = CLEAR Outcomes study

For `CC(C)(CCCCCC(O)CCCCCC(C)(C)C(=O)O)C(=O)O` [Nexletol, bempedoic acid], the Cmax ([1]; 180 mg dose of Nexletol) is given as 19950 ng/mL, the LDL-C reduction ([1]; 180 mg of Nexletol) is given as 26% and the “4 major adverse cardiovascular events (4-MACE) reduction compared with placebo group” value [2] is given as −13%.
